Among the data in patent US20100003246A1, “Novel heterocyclic compounds and uses therof” (priority 2008, published 2010) are IC50 values, retold here.

This experiment has as its target T1, b-Raf(V600E) (Homo sapiens, UniProt P15056, V600E).
T1 construct: made in house
The experiment in a line: Raf/Mek Amplified Luminescence Proximity Homogeneous Assay (Alpha Screen), b-Raf(V600E). The format is biochemical. To be noted: mutant b-Raf(V600E), read-out: mut-b-RAF (IC50 in uM). The protocol: Assay buffer: 50 mM Tris, pH 7.5, 15 mM MgCl2, 0.01% BSA, 1 mM DTT Stop buffer: 60 mM EDTA, 0.01% Tween20 Bead buffer: 50 mM Tris, pH 7.5, 0.01% Tween20
b-Raf(V600E), active: Recombinant in-house material biotinylated Mek, kinase dead: Recombinant in-house material Alpha Screen detection kit PerkinElmer, #6760617R Anti phospho-MEK½ Cell signaling #9121 384 well assay plates: White Greiner plates, #781207
b-Raf(V600E) approximately 4 pM c-Raf approximately 4 nM biotinylated Mek, Kinase dead approximately 10 nM
Pre-incubation time with compounds 60 min at room temperature Reaction time 1 or 3 hours at room temperature
Raf and biotinylated Mek, kinase dead, were combined at 2× final concentrations in assay buffer (50 mM Tris, pH 7.5, 15 mM MgCl2, 0.01% BSA and 1 mM DTT) and dispensed 10 μl per well in assay plates (Greiner white 384 well assay plates #781207) containing 0.5 μl of 40× of a raf kinase inhibitor test compound diluted in 100% DMSO. The plate was incubated for 60 min at room temperature.
The Raf kinase activity reaction was started by the addition of 10 μl per well of 2×ATP diluted in assay buffer. After 3 hours (bRaf(V600E)) or 1 hour (c-Raf), the reactions were stopped with the addition of 10 μl of stop reagent (60 mM EDTA). Phosphorylated product was measured using a rabbit anti-p-MEK (Cell Signaling, #9121) antibody and the Alpha Screen IgG (Protein A) detection Kit (PerkinElmer #6760617R), by the addition of 30 μL to the well of a mixture of the antibody (1:2000 dilution) and detection beads (1:2000 dilution of both beads) in bead buffer (50 mM Tris, pH 7.5, 0.01% Tween20). The additions were carried out under dark conditions to protect the detection beads from light. A lid was placed on top of the plate and incubated for 1 hour at room temperature, then the luminescence was read on a PerkinElmer Envision instrument. The concentration of each compound for 50% inhibition (IC50) was calculated by non-linear regression using XL Fit data analysis software.
The Raf/Mek Amplified Luminescence Proximity Homogeneous Assay described was used to generate the luminescence and mutant b-Raf(V600E) IC50 data for selected Raf Kinase Inhibitors shown in Table 1 above.

T1 sequence (P15056 whole entry V600E): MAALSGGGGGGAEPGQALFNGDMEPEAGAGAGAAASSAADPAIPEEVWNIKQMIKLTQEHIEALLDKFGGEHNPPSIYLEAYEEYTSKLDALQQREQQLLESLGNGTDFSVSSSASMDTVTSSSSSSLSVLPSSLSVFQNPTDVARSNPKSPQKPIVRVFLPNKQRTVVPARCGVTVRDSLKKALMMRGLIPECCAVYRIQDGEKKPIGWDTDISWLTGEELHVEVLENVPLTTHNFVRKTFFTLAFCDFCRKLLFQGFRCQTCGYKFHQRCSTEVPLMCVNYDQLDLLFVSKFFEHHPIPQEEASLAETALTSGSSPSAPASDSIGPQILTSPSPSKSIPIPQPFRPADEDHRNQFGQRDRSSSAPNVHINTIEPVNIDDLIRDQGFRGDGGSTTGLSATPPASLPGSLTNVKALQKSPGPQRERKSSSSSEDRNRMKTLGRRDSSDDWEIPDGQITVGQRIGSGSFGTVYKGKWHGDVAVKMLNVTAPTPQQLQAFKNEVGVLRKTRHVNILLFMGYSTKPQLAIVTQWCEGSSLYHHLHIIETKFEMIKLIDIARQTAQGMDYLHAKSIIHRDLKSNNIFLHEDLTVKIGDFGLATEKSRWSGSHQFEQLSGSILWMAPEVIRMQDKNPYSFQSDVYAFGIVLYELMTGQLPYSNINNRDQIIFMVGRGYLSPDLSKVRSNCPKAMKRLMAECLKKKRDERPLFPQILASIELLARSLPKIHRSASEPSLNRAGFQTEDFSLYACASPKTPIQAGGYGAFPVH

Usually IC50 stands for the concentration that inhibits the measured activity by half. Consider `COc1cc(-c2[nH]c(-c3ccc(C)c(F)c3)nc2-c2ccncc2)cnc1N` [Compound 117, 5-(2-(3-fluoro-4-methylphenyl)-4-(pyridin-4-yl)-1H-imidazol-5-yl)-3-methoxypyridin-2-amine], for which the IC50 is 0.0007 µM.
The result for `COc1cc(-c2nc(C(C)(C)C)[nH]c2-c2ccnc(Nc3cccc(OC(F)(F)F)c3)n2)cnc1N` [Compound 190, 4-(4-(6-amino-5-methoxypyridin-3-yl)-2-tert-butyl-1H-imidazol-5-yl)-N-(3-(trifluoromethoxy)phenyl) pyrimidin-2-amine] reads 0.0003 µM; that for `COc1cc(-c2nc(C(C)(C)C)[nH]c2-c2ccnc(N[C@@H]3CCN(S(C)(=O)=O)C3)n2)cnc1N` [Compound 203, (R)-4-(4-(6-amino-5-methoxypyridin-3-yl)-2-tert-butyl-1H-imidazol-5-yl)-N-(1-(methylsulfonyl)pyrrolidin-3-yl)pyrimidin-2-amine], 0.0035 µM.
For the compound `Cc1c[nH]c2ncc(-c3[nH]c(-c4ccc(F)cc4)nc3-c3ccncc3)cc12` [Compound 182, 5-(2-(4-fluorophenyl)-4-(pyridin-4-yl)-1H-imidazol-5-yl)-3-methyl-1H-pyrrolo[2,3-b]pyridine], the concentration for half-maximal inhibition (IC50) turned out to be 0.0002 µM.
For `COc1cc(-c2nc(-c3ccc(F)cc3)[nH]c2-c2ccnc(NC(C)C)n2)cnc1N` [Compound 158, 4-(4-(6-amino-5-methoxypyridin-3-yl)-2-(4-fluorophenyl)-1H-imidazol-5-yl)-N-isopropylpyrimidin-2-amine], the IC50 amounted to 0.0051 µM.
Turning to `COc1cc(-c2[nH]c(-c3ccc(F)cc3)nc2C2CCOCC2)cnc1N` [Example 10, 5-(2-(4-fluorophenyl)-5-(tetrahydro-2H-pyran-4-yl)-1H-imidazol-4-yl)-3-methoxypyridin-2-amine], the IC50 is 0.405 µM.
On to `CNc1nccc(-c2[nH]c(C(C)(C)C)nc2-c2cnc(N)c(OC)c2)n1` [Compound 210, 4-(4-(6-amino-5-methoxypyridin-3-yl)-2-tert-butyl-1H-imidazol-5-yl)-N-methylpyrimidin-2-amine], for which the IC50 was found to be 0.0001 µM.
As for `COc1cc(-c2[nH]c(-c3ccccc3F)nc2-c2ccncc2)cnc1N` [Compound 137, 5-(2-(2-fluorophenyl)-4-(pyridin-4-yl)-1H-imidazol-5-yl)-3-methoxypyridin-2-amine], the IC50 was 0.0017 µM.
Then `CCNc1nccc(-c2[nH]c(C(C)(C)C)nc2-c2cnc(N)c(OC)c2)n1` [Compound 211, 4-(4-(6-amino-5-methoxypyridin-3-yl)-2-tert-butyl-1H-imidazol-5-yl)-N-ethylpyrimidin-2-amine], with 0.0001 µM; and `COc1cc(-c2[nH]c(-c3ccccc3)nc2-c2ccnc(NCCNS(=O)(=O)C3CC3)n2)cnc1N` [Compound 88, N-(2-(4-(5-(6-amino-5-methoxypyridin-3-yl)-2-phenyl-1H-imidazol-4-yl)pyrimidin-2-ylamino)ethyl)cyclopro-panesulfonamide], with 0.0001 µM; and `COc1nc(-c2sc(-c3ccccc3)nc2-c2ccncc2)cnc1N` [Compound 77, 3-methoxy-5-(2-phenyl-4-(pyridin-4-yl)thiazol-5-yl)pyrazin-2-amine], with 0.089 µM.
For `Nc1n[nH]c2ccc(-c3[nH]c(-c4ccccc4)nc3-c3ccncc3)cc12` [Compound 26, 5-(2-phenyl-4-(pyridin-4-yl)-1H-imidazol-5-yl)-1H-indazol-3-amine], the IC50 was 0.173 µM.
Consider `COc1cc(Nc2nccc(-c3[nH]c(C(C)(C)C)nc3-c3nc(OC)c(N)nc3C)n2)ccn1` [Compound 253, 4-(4-(5-amino-6-methoxy-3-methylpyrazin-2-yl)-2-tert-butyl-1H-imidazol-5-yl)-N-(2-methoxypyridin-4-yl)pyrimidin-2-amine], for which the IC50 came to 0.0062 µM.
For `Nc1ncc(-c2[nH]c(-c3ccc(F)cc3)nc2-c2ccncc2)cc1F` [Compound 131, 3-fluoro-5-(2-(4-fluorophenyl)-4-(pyridin-4-yl)-1H-imidazol-5-yl)pyridin-2-amine], the IC50 was 0.174 µM.
For `c1ccc(-c2nc(-c3ccncc3)c(-c3cnc4c(c3)CCN4)[nH]2)cc1` [Compound 52, 5-(2-phenyl-4-(pyridin-4-yl)-1H-imidazol-5-yl)-2,3-dihydro-1H-pyrrolo[2,3-b]pyridine], the IC50 worked out at 0.0123 µM.
Then `COCC(=O)N[C@@H](C)CNc1nccc(-c2oc(-c3ccc(F)cc3)nc2-c2cnc(N)c(OC)c2)n1` [Compound 214, (S)-N-(1-(4-(4-(6-amino-5-methoxypyridin-3-yl)-2-(4-fluorophenyl)oxazol-5-yl)pyrimidin-2-ylamino)propan-2-yl)-2-methoxyacetamide], with 0.001 µM; and `COc1cc(-c2[nH]c(-c3ccc(F)cc3)nc2-c2ccnc3[nH]ccc23)cnc1N` [Compound 129, 5-(2-(4-fluorophenyl)-4-(1H-pyrrolo[2,3-b]pyridin-4-yl)-1H-imidazol-5-yl)-3-methoxypyridin-2-amine], with 0.0088 µM; and `c1ccc(-c2nc(-c3ccncc3)c(-c3ccc4cc[nH]c4c3)[nH]2)cc1` [Compound 33, 6-(2-phenyl-4-(pyridin-4-yl)-1H-imidazol-5-yl)-1H-indole], with 0.054 µM.
Then `COc1cc(-c2nccc(-c3[nH]c(C(C)(C)C)nc3-c3cnc(N)c(OC)c3)n2)cnc1N` [Compound 186, 5-(4-(4-(6-amino-5-methoxypyridin-3-yl)-2-tert-butyl-1H-imidazol-5-yl)pyrimidin-2-yl)-3-methoxypyridin-2-amine], with 0.0299 µM; and `COc1cc(Nc2nccc(-c3[nH]c(C(C)(C)C)nc3-c3cnc4[nH]cc(Cl)c4c3)n2)ccn1` [Compound 233, 4-(2-tert-butyl-4-(3-chloro-1H-pyrrolo[2,3-b]pyridin-5-yl)-1H-imidazol-5-yl)-N-(2-methoxypyridin-4-yl)pyrimidin-2-amine], with 0.0003 µM.
As to `COc1cc(-c2[nH]c(-c3ccccc3)nc2-c2ccnc(N[C@@H]3CCCN(S(=O)(=O)C4CC4)C3)n2)cnc1N` [Compound 91, (R)-4-(5-(6-amino-5-methoxypyridin-3-yl)-2-phenyl-1H-imidazol-4-yl)-N-(1-(cyclopropylsulfonyl)piper-idin-3-yl)pyrimidin-2-amine], the IC50 came to 0.0044 µM.
Then `O=C1CCc2cc(-c3[nH]c(-c4ccccc4)nc3-c3ccncc3)cnc2N1` [Compound 47, 6-(2-phenyl-4-(pyridin-4-yl)-1H-imidazol-5-yl)-3,4-dihydro-1,8-naphthyridin-2(1H)-one], with 0.885 µM; and `COc1cc(-c2[nH]c(-c3ccc(F)c(C)c3)nc2-c2ccncc2)cnc1N` [Compound 149, 5-(2-(4-fluoro-3-methylphenyl)-4-(pyridin-4-yl)-1H-imidazol-5-yl)-3-methoxypyridin-2-amine], with 0.0006 µM; and `Fc1ccc(-c2nc(-c3ccncc3)c(-c3cnc4[nH]cc(Cl)c4c3)[nH]2)cc1` [Example 12, 3-chloro-5-(2-(4-fluorophenyl)-4-(pyridine-4-yl)-1H-imidazol-5-yl)-1H-pyrrolo[2,3-b]pyridine], with 0.002 µM.
The result for `COc1cc(-c2[nH]c(-c3cccc(C)c3)nc2-c2ccncc2)cnc1N` [Compound 110, 3-methoxy-5-(4-(pyridin-4-yl)-2-tolyl-1H-imidazol-5-yl)pyridin-2-amine] reads 0.0005 µM; that for `COCC(=O)N[C@@H](C)CNc1nccc(-c2[nH]c(-c3ccc(F)cc3)nc2-c2cnc(N)c(OC)n2)n1` [Example 5, (S)—N-(1-(4-(4-(5-amino-6-methoxylpyrazin-2-yl)-2-(4-fluorophenyl)-1H-imidazol-5-yl)pyrimidin-2-ylamino)propan-2-yl)-2-methoxyacetamide], 0.0002 µM.
The result for `COc1cc(N)ncc1-c1[nH]c(-c2ccccc2)nc1-c1ccncc1` [Compound 40, 4-methoxy-5-(2-phenyl-4-(pyridin-4-yl)-1H-imidazol-5-yl)pyridin-2-amine] reads 0.502 µM.
For the compound `COc1cc(-c2[nH]c(-c3ccc(F)c(F)c3)nc2-c2ccncc2)cnc1N` [Compound 109, 5-(2-(3,4-difluorophenyl)-4-(pyridin-4-yl)-1H-imidazol-5-yl)-3-methoxypyridin-2-amine], the IC50 was determined as 0.0012 µM.
Then `COc1cc(-c2[nH]c(-c3ccc(C(F)(F)F)cc3)nc2-c2ccncc2)cnc1N` [Example 2, 3-methoxy-5-(5-(pyridine-4-yl)-2-(4-(trifluoromethyl)phenyl)-1H-imidazol-4-yl)pyridin-2-amine], with 0.0004 µM.
